The values below come from patent US11096942B2, “Heterocyclic compounds and uses thereof” (Celgene CAR LLC, priority 2010, dated 2021).

The structures appear in SMILES notation. Where two headings read alike, the source gives them in different places.

Experiment [1] addresses EGFR L858R/T790M (H1975 cells) (Homo sapiens (Human), UniProt P00533, L858R/T790M). Kind of experiment: Phospho-EGFR signaling immunoblot (1 hr), H1975 cells. In kind it is cell-based. The note with it: WT EGFR (A431) vs H1975. How it is done: (§1) A431 human epidermoid carcinoma, H1975 human NSCLC and HCC827 human NSCLC adenocarcinoma cells were obtained from the American Type Culture Center (Manassas, Va.). A431 cells were grown in DMEM (Invitrogen, Carlsbad, Calif.) supplemented with 10% FBS (HyClone, South Logan, Utah) and 1% Penicillin-Streptomycin (P/S, Lonza, Walkersville, Md.).
(§2) All primary antibodies were obtained from Cell Signaling (Danvers, Mass.) and used at 1:1000. Secondary antibodies were used at 1:10,000. Goat anti-mouse IgG IRDye 800CW antibody was obtained from LiCor Biosciences (Lincoln, Nebr.) and goat anti-rabbit IgG Alexa Fluor 680 was obtained from Invitrogen.
(§3) Cells were grown in 12-well plates (Corning, Coring, N.Y.) to 90% confluence and then incubated in low-serum (0.1% FBS) media for 16-18 hr. […] A431 cells were then stimulated with 50 ng/ml EGF (Peprotech, Rocky Hill, N.J.) for 15 min. After treatment, cell monolayers were washed with cold PBS (Invitrogen) and immediately lysed by scrapping into 60 uL cold Cell Extraction Buffer (Invitrogen) supplemented with Complete Protease inhibitors (Roche, Indianapolis, Ind.) and PhosphoSTOP (Roche) phosphatase inhibitors.
(§4) Phospho-protein signals were quantitated using Odyssey Infrared Imaging (Li-Cor Biosciences).
(§5) To assess phosphor-EGFR signaling, blots were probed with rabbit anti-Phospho-EGFR (Y1068) and mouse total anti-EGFR antibodies. Phospho-EGFR signal was normalized to total EGFR expression for each sample. […] Normalized data was fitted using a sigmoidal curve analysis program (Graph Pad Prism version 5) with variable Hill slope to determine the EC50 values.
In general terms: A western blot detects proteins with antibodies after separation by electrophoresis.

In experiment [2] the test system is H1975 cells (EGFR L858R/T790M). Kind of experiment: Cell proliferation (CellTiter Glo, 72 hr), H1975 cells. In kind it is cell-based, human. How it is done:
as §1
(§6) Cells were plated in Growth Media supplemented with 5% FBS and 1% P/S at a density of 3,000 cells per well in 96 well tissue culture plates (Corning). […] Growth inhibition (GI50) values were determined by Graph Pad Prism.
On the technique in general: ATP-based viability assays read luminescence as a measure of living cells.

Experiment [3] deals with HCC827 cells (EGFR delE746-A750). The experiment in a line: Cell proliferation (CellTiter Glo, 72 hr), HCC827 cells. In kind it is cell-based, human. How it is done:
as §1, §6

The target of experiment [4] is pEGFR in H1975 cells (Homo sapiens (Human), UniProt P00533, L858R/T790M). The experiment in a line: Washout experiment in H1975 cells. The conditions noted are these: 500 nM for 1 hr, then washout. Format: cell-based. How it is done: Washout Experiment in H1975 Cells Containing EGFR Deletion/T790M Mutation
Cells were plated in Growth Media supplemented with 10% FBS and 1% P/S at a density of 2.0×10^5 cells per well in 12 well tissue culture plates. Cells were allowed to settle down for 4 hrs and then maintained in low-serum (0.1% FBS) media overnight.
The following morning the media was removed and the cells were treated with 500 nM test compound in low-serum media for 1 hr. The cells were washed free of compound 2× with PBS (Invitrogen). One set of cells were immediately lysed as indicated above as the 0 hr time point. The remaining cells were incubated with complete RPMI-1640 growth media (10% FBS) for 1, 3, 6 and 24 hr. For the first 1 hr, cells were washed 2× with PBS every 30 min. DMSO (0.5%) controls were collected at the 0, 3, 6 and 24 hr time points.

Experiment [5] has as its target EGFR delE746-A750 (HCC827 cells) (Homo sapiens (Human), UniProt P00533, DEL746-750). Kind of experiment: Phospho-EGFR signaling immunoblot (1 hr), HCC827 cells. The conditions noted are these: WT EGFR (A431) vs HCC827. In kind it is cell-based. As for the experimental part:
as §1, §2, §3, §4, §5

Where [6] appears, read: proliferation, WT EGFR (A431) vs H1975.
[7] abbreviates: proliferation, WT EGFR (A431) vs HCC827.

Take `C=CC(=O)Nc1cccc(Nc2nc(Nc3ccc(N4CCOCC4)cc3OC)ncc2C(F)(F)F)c1` [Compound I-2, N-(3-(2-(2-methoxy-4-morpholinophenylamino)-5-(trifluoromethyl)pyrimidin-4-ylamino)phenyl)acrylamide]: the “Ratio WT/mutant” value is greater than 50 in experiment [1], greater than 20 in experiment [2] (setting [6]) and greater than 40 in experiment [3] (setting [7]). In addition, the “duration of action after compound removal” value in experiment [4] is listed as “prolonged duration of action after compound removal”.

As for `C=CC(=O)Nc1cccc(Nc2nc(Nc3ccc(N4CCN(C(C)=O)CC4)cc3OC)ncc2C(F)(F)F)c1` [Compound I-4, N-(3-(2-(4-(4-acetylpiperazin-1-yl)-2-methoxyphenylamino)-5-(trifluoromethyl)pyrimidin-4-ylamino)phenyl)acrylamide], the “duration of action after compound removal” value in experiment [4] was “prolonged duration of action after compound removal”.

In the case of `C=CC(=O)Nc1cccc(Nc2nc(Nc3ccc(N4CCOCC4)cc3OC(F)F)ncc2C(F)(F)F)c1` [Compound I-14, N-(3-(2-(2-(difluoromethoxy)-4-morpholinophenylamino)-5-(trifluoromethyl)pyrimidin-4-ylamino)phenyl)acrlamide], the “Ratio WT/mutant” value in experiment [1] is greater than 15; in experiment [5], greater than 15; in experiment [2] (setting [6]), greater than 5; in experiment [3] (setting [7]) it was greater than 10.

For `C=CC(=O)Nc1cccc(Nc2nc(Nc3ccc(N4CCN(S(C)(=O)=O)CC4)cc3OC)ncc2C(F)(F)F)c1` [Compound I-17, N-(3-(2-(2-methoxy-4-(4-(methylsulfonyl)piperazin-1-yl)phenylamino)-5-(trifluoromethyl)pyrimidin-4-ylamino)phenyl)acrylamide], the “Ratio WT/mutant” value in experiment [1] is recorded as greater than 30; in experiment [5], greater than 5; in experiment [2] (setting [6]), greater than 10; in experiment [3] (setting [7]), greater than 15.

With `C=CC(=O)Nc1cccc(Nc2nc(Nc3ccc(N4CCN(S(C)(=O)=O)CC4)cc3OC)ncc2Cl)c1` [Compound I-41, N-(3-(5-chloro-2-(2-methoxy-4-(4-(methylsulfonyl)piperazin-1-yl)phenylamino)pyrimidin-4-ylamino)phenyl)acrylamide], the figures for the “Ratio WT/mutant” value in experiment [1], in experiment [2] (setting [6]) and in experiment [3] (setting [7]) were greater than 1, greater than 1 and greater than 20, respectively.

As to `C=CC(=O)Nc1cccc(Nc2nc(Nc3ccc(N4CCCN(C(=O)OC(C)(C)C)CC4)cc3OC)ncc2C(F)(F)F)c1` [Compound I-44, tert-butyl 4-(4-(4-(3-acrylamidophenylamino)-5-(trifluoromethyl)pyrimidin-2-ylamino)-3-methoxyphenyl)-1,4-diazpane-1-carboxylate], the “Ratio WT/mutant” value in experiment [1], in experiment [2] (setting [6]) and in experiment [3] (setting [7]) was greater than 5 in each case.

With `C=CC(=O)Nc1cccc(Oc2nc(Nc3ccc(N4CCN(C(=O)OC(C)(C)C)CC4)cc3OC)ncc2Cl)c1` [Compound I-46, tert-butyl 4-(4-(4-(3-acrylamidophenoxy)-5-chloropyrimidin-2-ylamino)-3-methoxyphenyl)piperazine-1-carboxylate], the “Ratio WT/mutant” value in experiment [1] is greater than 10; in experiment [5], greater than 50; in experiment [2], greater than 1; in experiment [3], greater than 10.

With `C=CC(=O)Nc1cccc(Nc2nc(Nc3ccc(N4CCN(C(C)=O)[C@H](C(=O)OC)C4)cc3OC)ncc2C(F)(F)F)c1` [Compound I-48, (S)-methyl 1-acetyl-4-(4-(4-(3-acrylamidophenylamino)-5-(trifluoromethyl)pyrimidin-2-ylamino)-3-methoxyphenyl)piperazine-2-carboxylate], the “Ratio WT/mutant” value in experiment [1] is recorded as greater than 50; in experiment [2] (setting [6]), greater than 10; in experiment [3] (setting [7]), greater than 15.

Regarding `C=CC(=O)Nc1cccc(Nc2nc(Nc3ccc(N4CCS(=O)(=O)CC4)cc3OC)ncc2C(F)(F)F)c1` [Compound I-49, N-(3-(2-(2-methoxy-4,4-dioxo-4-thiomorpholinophenylamino)-5-(trifluoromethyl)pyrimidin-4-ylamino)phenyl)acrylamide], the “Ratio WT/mutant” value in experiment [1] is recorded as greater than 20; in experiment [2] (setting [6]), greater than 10; in experiment [3] (setting [7]), greater than 25.
